Values joined by “and” are separate entries in the source; they are usually repeats but may differ in a detail not shown here. Equal values may be shown once.
Legend:
DYRK1B [1] = target: T1, DYRK1B (Homo sapiens, UniProt Q9Y463); design: method as in Dirice et al. 2016; conditions: reference activity value, ref Dirice et al. 2016; cited from earlier work
T1 construct: purchased ThermoFisher Scientific

DYRK1B [2] = target: T1, DYRK1B; experiment: Lantha (TR-FRET) kinase binding assay
Description: Kinase binding activity was performed as described in[23]. Briefly, a 12-points dilution series of the compounds was prepared in DMSO and further diluted 1:33 in assay buffer A (50 mM HEPES (Sigma-Aldrich) pH 7.5, 10 mM MgCl2 (Sigma-Aldrich) 1 mM EGTA (Sigma-Aldrich) and 0.01% BRIJ-35 (ThermoFisher Scientific, Waltham, MA, USA). The GST tagged kinases, antibodies and tracer were purchased from ThermoFisher Scientific. DYRK1A and DYRK1B were each mixed with rabbit anti GST Europium tagged antibody in assay buffer A at concentrations of 15 nM kinase and 6 nM antibodies. Tracer 236 was diluted to 90 nM (DYRK1A) or 30 nM (DYRK1B) in assay buffer A. Finally, the kinase-antibody solution, compound solution and tracer solution were mixed together 1:1:1 (5µL each) in white, non-binding, round bottom 384 well microplates (Corning Inc, Kennebunk, ME, USA) mixed at 1000 rpm for 1 min and incubated in the dark at RT in humid atmosphere for 1 h. Fluorescence measurements were taken using a EnVision 2104 Multilabel reader (PerkinElmer, Shelton, CT, USA), excitation wavelength was set to 340 nm and emission was read at both 615 nm (8.5 nm bandwidth) and 665 nm (7.5 nm bandwidth) over 200ms with a 100ms delay between excitation and emission measurements. Emission ratio signals (EM) were calculated as the ratio between the 665 nm signal and the 615 nm signal. […]

RIN-M5F cells [3] = experiment: Cell viability (MTS, CellTiter 96 AQueous One) in cytokine-treated cells; type: cell-based, rat
Description: (§1) Rat beta cells RIN-M5F (purchased from ATCC, Manassas, VA, USA, product code ATCC-CRL-11605, passage number below 40 for all experiments presented in this manuscript) were cultured in RPMI-1640 (cat# R5886, Sigma-Aldrich, Saint Louis, MO, USA) supplemented with 10% FBS (Biowest, Nauillé, France), 2 mM L-glutamine (Biowest), 1 mM sodium pyruvate (Merck, Darmstadt, Germany) and 1x Penicillin-Streptomycin (Sigma-Aldrich) according to manufacturer’s instructions. Cells were seeded 3 days before the start of each experiment to allow full attachment. In experiments analysing the effects of cytokines, cells were treated with 20 ng/ml human IL-1β and 20 ng/ml rat IFNγ (Peprotech, Rocky Hill, NJ, USA) for a given time as indicated. Mycoplasma was tested as negative using MycoAlert® Mycoplasma Kit (Lonza, Basel, Switzerland).
RIN-M5F cells were cultured in 96-well plates, 2 × 10^4 cells/well. […] Control wells with RPMI-1640 alone or supplemented with DMSO (Sigma-Aldrich, final concentration 10%) were used to estimate absorbance at 100% or 0% viability, respectively. […] The cells were thereafter incubated for an additional 72 h, and cell viability was measured by CellTiter 96®AQueous One Solution Assay (Promega, Madison, WI, USA) according to the manufacturer’s instructions. Absorbance at 490 nm was measured using a Spark® multimode microplate reader (Tecan, Männedorf, Switzerland). […]

RIN-M5F cells [4] = experiment: Cell cycle distribution (PI staining, flow cytometry); type: cell-based, rat
Description: as §1
RIN-M5F cells were seeded in 6-well plates, 6 × 10^5 cells/well. […] After stimulation, the cells were washed with phosphate buffered saline (PBS) and trypsinated for 5 min at 37 °C, and fixed in ice-cold ethanol (70%) at 4 °C until analysis. The cells were stained by FxCycle™ PI/RNase Staining Solution kit (Invitrogen) according to manufacturer’s instructions and analysed by flow cytometry (CytoFLEX, Beckman Coulter). The percentages of cells in G1, S1 and G2/M was determined using the CytExpert software.

phospho-p27^kip1 (Ser10) = experiment: Western blot of phosphorylated p27KIP; type: cell-based, rat; conditions: 48 h, no cytokines
Description: (§2) RIN-M5F cells were seeded in 6-well plates, 6 × 10^5 cells/well. […] After centrifugation (16.9 RCF, 15 min at 4 °C) the samples were directly diluted in NuPAGE™ LDS Sample Buffer (4X, Invitrogen) supplemented with NuPAGE™ Sample Reducing Agent (10X, Invitrogen), boiled at 95 °C for 5min and loaded on gel (NuPAGE™ 4–12%, Bis-Tris, Invitrogen). Protein transfer to PVDF membrane was performed by the iBlot™ dry blotting system (Invitrogen) according to manufacturer’s instructions. The membrane was blocked using SuperBlock™ Blocking Buffer (Thermo Fisher Scientific) and subsequently cut in half around 60 kDA, the top half was incubated with primary antibodies for phospho-dyrk1a/b (Tyr321, Tyr273) (1:500, Invitrogen, ref: PA5-64574), while the bottom half was incubated with phospho-p27^kip1 (Ser10) (1:200, Invitrogen, ref:34-6300) over night at 4 °C. After washing, the membrane was incubated with Alexa488-conjugated secondary antibody (1:5000, goat anti-rabbit, Invitrogen) for 2 h and imaged with a PharoxFX imager (Bio-Rad, Hercules, CA, USA). […] Protein quantification was performed with ImageJ (National Institutes of Health, Bethesda MD, USA), using the gel analysis tool to get the integrated pixel intensity for each band.

RIN-M5F cells [5] = experiment: EdU incorporation (flow cytometry); type: cell-based, rat; conditions: for Average increase of EdU + labelling: versus untreated
Description: as §1
RIN-M5F cells were seeded into 6 well plates, 6 × 10^5 cells per well. […] Subsequently, the cells were stained with 10 µM Click-iT EdU (Invitrogen, Waltham, MA, USA) for 2 h, and analysed by flow cytometry (CytoFLEX, Beckman Coulter, Brea, CA, USA) according to the manufacturer’s instructions. EdU incorporation was analysed using the CytExpert software.

HepG2 cells = experiment: EdU incorporation in HepG2 cells; type: cell-based; conditions: 10 µM BfC versus untreated
From the text: Supplementary Figure S2. Redocking of harmine in DYRK1A. The interactions between the compounds and the kinase hinge are identical (red circles) in both calculated and experimental model. […]
compounds are shown as cartoon, with blue for nitrogen atoms, white for hydrogen, red for oxygen, purple for iodine and either orange (experimental) or green (docked) for carbon atoms. The protein active site is shown as a grey surface and important residues are shown as wire, dashed line represent […]
µM). Open bars: EdU negative cells. Closed bars: EdU positive cells. Closed circles: Untreated cells. […]

[6] = system: phospho-dyrk1a/b (Tyr321, Tyr273); experiment: Western blot of phosphorylated DYRK1A/B; type: cell-based, rat; conditions: 48 h, no cytokines
Description: as §2

DYRK3 = target: T2, DYRK3 (Homo sapiens, UniProt O43781); experiment: Kinase activity assay (33P-ATP radioactive filter binding); type: biochemical; conditions: duplicate 10-point concentration curve, mean ± SD
T2 sequence (O43781 1-588): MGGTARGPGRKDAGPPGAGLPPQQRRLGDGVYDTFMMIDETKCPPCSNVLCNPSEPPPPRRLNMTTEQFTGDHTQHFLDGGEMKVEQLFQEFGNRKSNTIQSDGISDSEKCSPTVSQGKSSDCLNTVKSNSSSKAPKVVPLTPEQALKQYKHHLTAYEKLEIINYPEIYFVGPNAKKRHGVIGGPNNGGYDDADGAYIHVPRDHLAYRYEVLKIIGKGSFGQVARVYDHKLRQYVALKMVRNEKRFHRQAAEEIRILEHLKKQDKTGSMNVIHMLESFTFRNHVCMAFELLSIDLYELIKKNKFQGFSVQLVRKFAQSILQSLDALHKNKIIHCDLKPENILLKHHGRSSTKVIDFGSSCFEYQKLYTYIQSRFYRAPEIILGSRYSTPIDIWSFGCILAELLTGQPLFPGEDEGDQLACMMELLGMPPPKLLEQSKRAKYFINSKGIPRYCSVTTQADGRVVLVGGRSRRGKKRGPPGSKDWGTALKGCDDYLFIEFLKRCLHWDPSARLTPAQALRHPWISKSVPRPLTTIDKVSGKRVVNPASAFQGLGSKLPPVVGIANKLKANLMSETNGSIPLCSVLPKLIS
Description: (§3) Each kinase was assayed using a duplicate 10-point concentration curve.

DYRK2 = target: T3, DYRK2 (Homo sapiens, UniProt Q92630); experiment: as above; type: biochemical; conditions: duplicate 10-point concentration curve, mean ± SD
T3 sequence (Q92630 1-601): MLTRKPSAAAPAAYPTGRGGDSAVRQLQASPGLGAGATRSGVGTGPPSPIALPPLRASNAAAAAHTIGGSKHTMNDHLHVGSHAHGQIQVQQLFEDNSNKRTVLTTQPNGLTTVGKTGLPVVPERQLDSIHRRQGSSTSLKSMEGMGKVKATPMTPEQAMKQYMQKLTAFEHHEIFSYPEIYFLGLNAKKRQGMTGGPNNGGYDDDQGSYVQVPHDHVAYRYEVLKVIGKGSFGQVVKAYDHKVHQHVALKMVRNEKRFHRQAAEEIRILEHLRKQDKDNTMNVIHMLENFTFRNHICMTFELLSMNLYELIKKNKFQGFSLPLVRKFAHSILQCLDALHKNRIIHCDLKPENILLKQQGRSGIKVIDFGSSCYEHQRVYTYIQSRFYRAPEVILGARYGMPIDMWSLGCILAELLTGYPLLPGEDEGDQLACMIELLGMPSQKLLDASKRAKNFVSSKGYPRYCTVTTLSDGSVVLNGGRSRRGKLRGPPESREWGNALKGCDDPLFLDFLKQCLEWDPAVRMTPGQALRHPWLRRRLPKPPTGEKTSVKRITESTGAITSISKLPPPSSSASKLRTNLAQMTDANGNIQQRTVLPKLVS
Description: as §3

48 cell lines = system: 48 cell lines; design: method as in PMID 31647655; conditions: cited from earlier work
RIN-M5F cells [7] = experiment: Caspase 3/7 activity (Caspase-Glo); type: cell-based, rat
Description: as §1
RIN-M5F cells were cultured in 96-well plates, 2 × 10^4 cells/well. […] Caspase 3/7 activity was measured by Caspase-Glo (Promega) according to the manufacturer’s instructions. Each experiment was performed in triplicates.

[8] = 20 µM, cells treated with cytokines

T1 sequence (Q9Y463 whole entry): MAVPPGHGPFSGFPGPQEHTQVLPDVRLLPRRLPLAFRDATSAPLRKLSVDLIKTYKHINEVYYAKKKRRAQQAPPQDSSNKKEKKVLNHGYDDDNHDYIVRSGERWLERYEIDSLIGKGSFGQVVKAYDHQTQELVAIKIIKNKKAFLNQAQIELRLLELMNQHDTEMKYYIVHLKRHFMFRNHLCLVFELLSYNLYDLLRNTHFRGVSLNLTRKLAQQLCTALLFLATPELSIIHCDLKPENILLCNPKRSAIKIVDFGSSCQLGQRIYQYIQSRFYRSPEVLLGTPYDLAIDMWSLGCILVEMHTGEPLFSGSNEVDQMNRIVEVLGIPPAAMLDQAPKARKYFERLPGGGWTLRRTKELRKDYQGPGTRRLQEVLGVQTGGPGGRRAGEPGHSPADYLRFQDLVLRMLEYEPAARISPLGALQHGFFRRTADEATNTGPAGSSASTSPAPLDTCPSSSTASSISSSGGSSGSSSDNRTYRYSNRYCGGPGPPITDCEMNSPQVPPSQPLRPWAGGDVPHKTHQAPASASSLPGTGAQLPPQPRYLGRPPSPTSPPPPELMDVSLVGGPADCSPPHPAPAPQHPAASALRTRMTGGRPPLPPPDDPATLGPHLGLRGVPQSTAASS

Question: With Nc1ncnc2c1c(I)cn2[C@@H]1O[C@H](CO)[C@@H](O)[C@H]1O [5IT, reference compound] as the compound, how does the IC50 (DYRK1B [1]) read?
Answer: 10 nM

Question: What about the Kd (DYRK1B [2]; lanthaScreen, 95% confidence interval in bracket) of the same compound?
Answer: 0.0024 µM

Question: Which “Protective effect against cytokine-induced cell death at higher concentrations” value (RIN-M5F cells [3]; concentrations above 10–20 µM (up to 40 µM), with cytokines) does the source give for COc1cc2c(-c3cnc(-c4ccc[nH]4)o3)c[nH]c2cc1Br [BfC, breitfussin C] here?
Answer: lost

Question: What about the “Concentration range of effective protection against cytokine-induced cell death” value (RIN-M5F cells [3]; dose-response 1.25-40 µM with cytokines) of the same compound?
Answer: 10 to 20 µM

Question: And the “Change of cells in G0/G1 phase” value (RIN-M5F cells [4]; 10 µM, without cytokines)?
Answer: significantly decreased

Question: And the “Change of cells in S and G2/M phase” value (RIN-M5F cells [4]; 10 µM, without cytokines)?
Answer: increased

Question: And the “Number of cells in G0/G1” value (RIN-M5F cells [4]; 20 µM, 48 h, without cytokines, control 76.9 ± 0.6%)?
Answer: 66.6 ± 1.3%

Question: What about the “Change of cells in S and G2/M phase” value (RIN-M5F cells [4]; [8]) of the same compound?
Answer: increased

Question: What about the “Change of number of cells in G0/G1” value (RIN-M5F cells [4]; [8]) of the same compound?
Answer: significantly decreased

Question: What about the “Change of cells in S and G2/M phase” value (RIN-M5F cells [4]; 20 µM, without cytokines) of the same compound?
Answer: increased

Question: And the “Decrease of expression of p-p27^KIP compared to control” value (phospho-p27^kip1 (Ser10); 10 µM)?
Answer: 23%

Question: What about the “Decrease of expression of p-p27^KIP compared to control” value (phospho-p27^kip1 (Ser10); 20 µM) of the same compound?
Answer: 42%

Question: What about the “EdU + labelling rate” value (RIN-M5F cells [5]; 10 µM pretreatment, cytokine treated cells, cytokines alone 7.7 ± 0.8%) of the same compound?
Answer: 8.8 ± 0.8%

Question: What about the “Average increase of EdU + labelling” value (RIN-M5F cells [5]; 10 µM, without cytokines) of the same compound?
Answer: 12.5%

Question: What about the “EdU + labelling rate” value (RIN-M5F cells [5]; 10 µM, without cytokines, untreated 15.2 ± […]) of the same compound?
Answer: 17.1 ± 0.9%

Question: What about the “EdU + labelling rate” value (RIN-M5F cells [5]; 20 µM pretreatment, cytokine treated cells, cytokines alone 7.7 ± 0.8%) of the same compound?
Answer: 11.0 ± 1.1%

Question: What about the “Average increase of EdU + labelling” value (RIN-M5F cells [5]; 20 µM, without cytokines) of the same compound?
Answer: 21.1%

Question: And the “EdU + labelling rate” value (RIN-M5F cells [5]; 20 µM, without cytokines, untreated 15.2 ± […])?
Answer: 18.4 ± 1.5%

Question: And the “EdU incorporation in HepG2 cells” value (HepG2 cells)?
Answer: decreased

Question: And the “Decrease of expression of p-DYRK1A/B compared to control” value ([6]; 10 µM)?
Answer: approximately 50%

Question: What about the “Decrease of expression of p-DYRK1A/B compared to control” value ([6]; 20 µM) of the same compound?
Answer: ~62%

Question: And the IC50 (DYRK3)?
Answer: 4.4 ± 0.8 µM

Question: What about the IC50 (DYRK2) of the same compound?
Answer: 1400 ± 500 nM

Question: And the “Concentration at which cytotoxic to 48 cell lines” value (48 cell lines)?
Answer: ≤ 10 µM

Question: And the “Caspase 3/7 activity compared to control” value (RIN-M5F cells [7]; 10 µM pretreatment 24 h before cytokines, cytokines alone 199%)?
Answer: 210 ± 15%

Question: And the “Caspase 3/7 activity compared to control” value (RIN-M5F cells [7]; 10 µM, 48 h, without cytokines)?
Answer: 127 ± 2%

Question: And the “Caspase 3/7 activity compared to control” value (RIN-M5F cells [7]; 20 µM pretreatment 24 h before cytokines, cytokines alone 199%)?
Answer: 241 ± 20%

Question: And the “Caspase 3/7 activity compared to control” value (RIN-M5F cells [7]; 20 µM, 48 h, without cytokines)?
Answer: 186 ± 19%

Question: What about the Kd (DYRK1B [2]; TR-FRET, approximate because of compound autofluorescence) of the same compound?
Answer: ~9 µM and 9 µM

Source: article PMC11706957 (Scientific Reports, 2025)
